Source: patent US20260000672A1, “HISTONE DEACETYLASE INHIBITORS FOR USE IN IMMUNOTHERAPY” (Viracta Subsidiary, Inc., priority 2016, published 2026)

Columns and labels:
BALB/c splenocytes = assay: FACS analysis of BALB/c splenocytes after 24 hours with test agents; format: cell-based, mouse; settings: for CD45+ CD3+ CD4+ / CD45+ CD3+ CD4+ CD25+ / CD45+ CD3+ CD4+ FoxP3+ / CD45+ CD3+ CD4+ FoxP3+, CD25+ / CD45+ CD3+ CD4+ FoxP3+, CD25− / CD45+ CD3+ CD4+ FoxP3− CD25+ / CD45± / Live / CD45+ CD3+: 24 hours
Excerpt: FACS analysis consisted of the following markers: live/dead, CD45, CD3, CD4, CD25 and FOXP3.

[1] = tested on: breast cancer cell line MCF-7; settings: cited from earlier work
mouse fibroblasts = settings: cited from earlier work
[2] = 1 uM, n=5, mean (SD in the line below)

Nc1ccccc1NC(=O)c1ccc(CNC(=O)OCc2cccnc2)cc1 [Entinostat, reference compound]
CD45+ CD3+ CD4+ (BALB/c splenocytes; 1 uM, n=5): 38.5%
CD45+ CD3+ CD4+ CD25+ (BALB/c splenocytes; 1 uM, n=5): 10.4%
CD45+ CD3+ CD4+ FoxP3+ (BALB/c splenocytes; 1 uM, n=5): 10.1%
CD45+ CD3+ CD4+ FoxP3+, CD25+ (BALB/c splenocytes; 1 uM, n=5): 5.12%
CD45+ CD3+ CD4+ FoxP3+, CD25− (BALB/c splenocytes; 1 uM, n=5): 2.33%
CD45+ CD3+ CD4+ FoxP3− CD25+ (BALB/c splenocytes; 1 uM, n=5): 4.57%
CD45± (BALB/c splenocytes; 1 uM, n=5): 99.1%
Live (BALB/c splenocytes; [2]): 97.6%

O=C(NO)c1cnc(N2CC3C(C2)C3NCc2ccc3cc(F)ccc3n2)nc1 (stereo not shown) [VRx-3996, 2-(6-{[(6-Fluoroquinolin-2-yl)methyl]amino}-3-azabicyclo[3.1.0]hex-3-yl)-N-hydroxypyrimidine-5-carboxamide]
CD45+ CD3+ (BALB/c splenocytes; 1 nM, n=5): 46.9%
CD45+ CD3+ CD4+ (BALB/c splenocytes; 1 nM, n=5): 32.4%
CD45+ CD3+ CD4+ CD25+ (BALB/c splenocytes; 1 nM, n=5): 7.93%
CD45+ CD3+ CD4+ FoxP3+ (BALB/c splenocytes; 1 nM, n=5): 12%
CD45+ CD3+ CD4+ FoxP3+, CD25+ (BALB/c splenocytes; 1 nM, n=5): 6.2%
CD45+ CD3+ CD4+ FoxP3+, CD25− (BALB/c splenocytes; 1 nM, n=5): 4.47%
CD45+ CD3+ CD4+ FoxP3− CD25+ (BALB/c splenocytes; 1 nM, n=5): 1.14%
CD45± (BALB/c splenocytes; 1 nM, n=5): 98.6%
Live (BALB/c splenocytes; 1 nM, n=5): 98.4%
CD45+ CD3+ (BALB/c splenocytes; 100 nM, n=5): 94%
CD45+ CD3+ CD4+ (BALB/c splenocytes; 100 nM, n=5): 75.3%
CD45+ CD3+ CD4+ CD25+ (BALB/c splenocytes; 100 nM, n=5): 1.89%
CD45+ CD3+ CD4+ FoxP3+ (BALB/c splenocytes; 100 nM, n=5): 1.62%
CD45+ CD3+ CD4+ FoxP3+, CD25+ (BALB/c splenocytes; 100 nM, n=5): 0.064%
CD45+ CD3+ CD4+ FoxP3+, CD25− (BALB/c splenocytes; 100 nM, n=5): 0.34%
CD45+ CD3+ CD4+ FoxP3− CD25+ (BALB/c splenocytes; 100 nM, n=5): 1.22%
CD45± (BALB/c splenocytes; 100 nM, n=5): 99.6%
Live (BALB/c splenocytes; 100 nM, n=5): 91.4%
CD45+ CD3+ (BALB/c splenocytes; 500 nM, n=5): 94%
CD45+ CD3+ CD4+ (BALB/c splenocytes; 500 nM, n=5): 80.6%
CD45+ CD3+ CD4+ CD25+ (BALB/c splenocytes; 500 nM, n=5): 3.03%
CD45+ CD3+ CD4+ FoxP3+ (BALB/c splenocytes; 500 nM, n=5): 2.36%
CD45+ CD3+ CD4+ FoxP3+, CD25+ (BALB/c splenocytes; 500 nM, n=5): 0.22%
CD45+ CD3+ CD4+ FoxP3+, CD25− (BALB/c splenocytes; 500 nM, n=5): 0.47%
CD45+ CD3+ CD4+ FoxP3− CD25+ (BALB/c splenocytes; 500 nM, n=5): 1.69%
CD45± (BALB/c splenocytes; 500 nM, n=5): 99.5%
Live (BALB/c splenocytes; 500 nM, n=5): 87.2%
CD45+ CD3+ (BALB/c splenocytes; 1 uM, n=5): 94.7%
CD45+ CD3+ CD4+ (BALB/c splenocytes; 1 uM, n=5): 82.2%
CD45+ CD3+ CD4+ CD25+ (BALB/c splenocytes; 1 uM, n=5): 3.57%
CD45+ CD3+ CD4+ FoxP3+ (BALB/c splenocytes; 1 uM, n=5): 3.85%
CD45+ CD3+ CD4+ FoxP3+, CD25+ (BALB/c splenocytes; 1 uM, n=5): 0.14%
CD45+ CD3+ CD4+ FoxP3+, CD25− (BALB/c splenocytes; 1 uM, n=5): 0.8%
CD45+ CD3+ CD4+ FoxP3− CD25+ (BALB/c splenocytes; 1 uM, n=5): 1.96%
CD45± (BALB/c splenocytes; 1 uM, n=5): 99.6%
Live (BALB/c splenocytes; [2]): 84.7%
reduction in FoxP3, CD25+ T cells (BALB/c splenocytes; compared to entinostat at 1 μM): ~47 fold
concentration at which the suppressive effect on FoxP3+, CD25+ T cells was seen (BALB/c splenocytes; seen at least as low as): ≤ 100 nM
effect on CD4+, CD25+, and FoxP3+ regulatory cells (BALB/c splenocytes; striking when compared to entinostat): specifically reduces

CCCC(=O)O [butyrate]
cellular proliferation [1]: induces a block in cellular proliferation
cell cycle (mouse fibroblasts): block the cell cycle in the G1 phase
